Some results are limits rather than exact numbers.

For the assay, the target named is T1, factor D (Homo sapiens, UniProt P00746).
T1 construct: made in house; host or cells: E. coli
T1 sequence (P00746 26-253): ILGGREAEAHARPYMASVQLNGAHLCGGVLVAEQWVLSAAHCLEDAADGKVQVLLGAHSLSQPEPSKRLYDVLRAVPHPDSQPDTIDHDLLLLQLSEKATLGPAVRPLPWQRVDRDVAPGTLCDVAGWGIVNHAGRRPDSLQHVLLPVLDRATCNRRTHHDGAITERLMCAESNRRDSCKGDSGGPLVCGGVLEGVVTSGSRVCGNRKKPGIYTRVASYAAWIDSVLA
Briefly: factor D inhibition assay of Biological Example 2. It counts as biochemical.
Consider `NCc1cccc(-c2cccc(S(=O)(=O)Nc3ccccc3CC(=O)O)c2)c1` [Example 48, 2-(2-(3′-(Aminomethyl)-[1,1′-biphenyl]-3-ylsulfonamido)phenyl)acetic acid], for which the IC50 is 2890 nM. On to `N[C@H](CO)c1cccc(-c2cccc(COc3c(F)cccc3CC(=O)O)c2)c1` [Example 75-B, (S)-2-(2-((3′-(1-Amino-2-hydroxyethyl)-[1,1′-biphenyl]-3-yl)methoxy)-3-fluorophenyl)acetic acid], for which inhibition was half-maximal at 26 nM (IC50). Compared with the last molecule, the IC50 is about 110-fold lower. Regarding `NCc1cc(F)cc(-c2cccc(C(=O)Nc3ccc(Br)cc3CC(=O)O)c2)c1` [Example 18-B, 2-(2-(3′-(Aminomethyl)-5′-fluoro-[1,1′-biphenyl]-3-ylcarboxamido)-5-bromophenyl)acetic acid], the 50% inhibitory concentration (IC50) amounted to 8790 nM. This IC50 lies about 340-fold higher than the previous one. Next, `C[C@H](N)c1cccc(-c2cc(COc3ccccc3CC(=O)O)cc(OCC3(C)CC3)c2)c1F` [Example 260, (S)-2-(2-((3′-(1-aminoethyl)-2′-fluoro-5-((1-methylcyclopropyl)methoxy)-[1,1′-biphenyl]-3-yl)methoxy)phenyl)acetic acid]: 39 nM; `N[C@H](CO)c1cccc(-c2cc(COc3ccccc3CC(=O)O)cc(C(O)C3CCCCC3)c2)c1` (mixture of isomers) [116-I a), 2-(2-((3′-((S)-1-amino-2-hydroxyethyl)-5-(cyclohexyl(hydroxy)methyl)-[1,1′-biphenyl]-3-yl)methoxy)phenyl)acetic acid]: 13 nM. To `NCc1cccc(-c2cccc(C#Cc3ccccc3CC(=O)O)c2)c1` [Example 16-C, 2-(2-((3′-(Aminomethyl)-[1,1′-biphenyl]-3-yl)ethynyl)phenyl)acetic acid] belongs 338 nM. Next, `C[C@@H](N)c1cccc(-c2cc(COc3ccccc3CC(=O)O)cc(CC3CCOCC3)c2)c1F` [Example 246-C, (R)-2-(2-((3′-(1-aminoethyl)-2′-fluoro-5-((tetrahydro-2H-pyran-4-yl)methyl)-[1,1′-biphenyl]-3-yl)methoxy)phenyl)acetic acid]: under 1 nM; `NCc1cccc(-c2cccc(C(=O)Nc3ccccc3CC(=O)O)c2)c1F` [Example 37, 2-(2-(3′-(Aminomethyl)-2′-fluoro-[1,1′-biphenyl]-3-ylcarboxamido)phenyl)acetic acid]: 41 nM. `NC(CF)c1cccc(-c2cc(COc3ccccc3CC(=O)O)cc(NC[C@@H]3CCCO3)c2)c1F` (mixture of isomers) [Example 204-B, 2-(2-((3′-(1-amino-2-fluoroethyl)-2′-fluoro-5-((((S)-tetrahydrofuran-2-yl)methyl)amino)-[1,1′-biphenyl]-3-yl)methoxy)phenyl)acetic acid (mixture of diastereomers)] displayed a half-inhibitory concentration (IC50) of 7 nM. To `N[C@H](CCF)c1cccc(-c2cc(Cl)cc(COc3ccccc3CC(=O)O)c2)c1` [Example 279-B, (R)-2-(2-((3′-(1-amino-3-fluoropropyl)-5-chloro-[1,1′-biphenyl]-3-yl)methoxy)phenyl)acetic acid] belongs 290 nM. To `C[C@@H](N)c1cccc(-c2cc(COc3ccccc3CC(=O)O)cc(C(C)(C)O)c2)c1F` [Example 120-G] belongs 13 nM; to `NCc1cc(F)cc(-c2cc(Nc3ccccc3)cc(C(=O)Nc3ccccc3CC(=O)O)c2)c1` [Example 13-B, 2-(2-(3′-(Aminomethyl)-5′-fluoro-5-(phenylamino)-[1,1′-biphenyl]-3-ylcarboxamido)phenyl)acetic acid], 9 nM; to `COc1cccc(CC(=O)O)c1NC(=O)c1cccc(-c2cc(F)cc(CN)c2)c1` [Example 21-K], 126 nM. To `NCc1cccc(-c2cc(COc3ccccc3CC(=O)O)cc(C3CC3)c2)c1` [Example 103-B, 2-(2-((3′-(Aminomethyl)-5-cyclopropyl-[1,1′-biphenyl]-3-yl)methoxy)phenyl)acetic acid] belongs 10 nM; to `NC(CF)c1cccc(-c2cc(COc3ccccc3CC(=O)O)cc(OC[C@H]3CCCO3)c2)c1F` (single isomer, unassigned; (-)) [Example 212-A], 6 nM.

The molecule `C[C@@](N)(CO)c1cccc(-c2cccc(COc3ccccc3CC(=O)O)c2)c1` [Example 142-F] returned an IC50 of 260 nM. Next, `C[C@@H](N)c1cccc(-c2cc(COc3ccccc3CC(=O)O)cc(OCC3CCCC3)c2)c1F` [Example 214-H]: 700 nM. Next, `CCc1ccc(CC(=O)O)c(NC(=O)c2cccc(-c3cc(F)cc(CN)c3)n2)c1` [Example 21-O]: 12 nM.

Take `C[C@@H](N)c1cccc(-c2cc(COc3ccccc3CC(=O)O)cc(OCc3cccnc3)c2)c1F` [Example 214-L]: the midpoint of inhibition, the IC50, lay at 12 nM. Molecule `CCc1sc(-c2cc(F)cc(CN)c2)nc1C(=O)Nc1ccccc1CC(=O)O` [Example 36-C, 2-(2-(2-(3-(Aminomethyl)-5-fluorophenyl)-5-ethylthiazole-4-carboxamido)phenyl)acetic acid] returned an IC50 of 36 nM.

In turn, `C[C@H](N)c1cccc(-c2cc(CCc3ccncc3)cc(COc3ccccc3CC(=O)O)c2)c1F` [Example 216-O] came in with an IC50 of 78 nM. Next, `N#Cc1ccc(CC(=O)O)c(OCc2cccc(-c3cccc(CN)c3)c2)c1` [Example 294-B]: 40 nM; `CCC[C@@H](N)c1cccc(-c2cc(COc3ccccc3CC(=O)O)cc(-c3ccccc3)c2)c1F` [Example 200-B, (R)-2-(2-((3-(1-aminobutyl)-2-fluoro-[1,1′:3′,1″-terphenyl]-5′-yl)methoxy)phenyl)acetic acid]: 22 nM.

Turning to `C[C@H](N)c1cccc(-c2cc(CCCF)cc(COc3ccccc3CC(=O)O)c2)c1F` [Example 270, (S)-2-(2-((3′-(1-aminoethyl)-2′-fluoro-5-(3-fluoropropyl)-[1,1′-biphenyl]-3-yl)methoxy)phenyl)acetic acid], 11 nM corresponded to half-maximal inhibition (IC50). Next, `NCc1cc(F)cc(-c2cccc(C(=O)Nc3c(F)cccc3CC(=O)O)c2)c1` [Example 21-D]: 989 nM. Next, `COc1c(C(=O)Nc2ccccc2CC(=O)O)cccc1-c1cccc(CN)c1` [Example 91, 2-(2-(3′-(Aminomethyl)-2-methoxy-[1,1′-biphenyl]-3-ylcarboxamido)phenyl)acetic acid]: 22300 nM; `C[C@@H](N)c1cccc(-c2ccnc(COc3ccccc3CC(=O)O)c2)c1` [Example 180, (R)-2-(2-((4-(3-(1-Aminoethyl)phenyl)pyridin-2-yl)methoxy)phenyl)acetic acid]: 149 nM; `Cc1ccc(CC(=O)O)c(NC(=O)c2cccc(-c3cc(F)cc(CN)c3)c2)c1` [Example 21-B]: 47 nM.

Take `Cc1cccc(CC(=O)O)c1NC(=O)c1cccc(-c2cc(F)cc(CN)c2)c1` [Example 21-C]: the IC50 came to 109 nM. Next, `CCC[C@@H](N)c1cccc(-c2cc(COc3ccccc3CC(=O)O)cc(NCCOC)c2)c1` [Example 201, (R)-2-(2-((3′-(1-Aminobutyl)-5-((2-methoxyethyl)amino)-[1,1′-biphenyl]-3-yl)methoxy)phenyl)acetic acid]: 113 nM.

Molecule `CCC[C@@H](N)c1cccc(-c2cc(COc3ccccc3CC(=O)O)cc(-c3cnn(C)c3)c2)c1F` [Example 203, (R)-2-(2-((3′-(1-Aminobutyl)-2′-fluoro-5-(1-methyl-1H-pyrazol-4-yl)-[1,1′-biphenyl]-3-yl)methoxy)phenyl)acetic acid] showed a concentration for half-maximal inhibition (IC50) of 54 nM.

`NCc1cccc(-c2cc(C(=O)Nc3ccccc3CC(=O)O)ccn2)c1` [Example 38, 2-(2-(2-(3-(Aminomethyl)phenyl)isonicotinamido)phenyl)acetic acid] displayed an IC50 of 14300 nM. The molecule `COc1ccc(COc2ccccc2CC(=O)O)cc1-c1cccc([C@H](N)CO)c1` [Example 127-B, (S)-2-(2-((3′-(1-Amino-2-hydroxyethyl)-6-methoxy-[1,1′-biphenyl]-3-yl)methoxy)phenyl)acetic acid] gave an IC50 of 62 nM. To `NCc1cc(F)cc(-c2cc(OC[C@H]3CCCO3)cc(C(=O)Nc3ccccc3CC(=O)O)c2)c1` [Example 76, (R)-2-(2-(3′-(Aminomethyl)-5′-fluoro-5-((tetrahydrofuran-2-yl)methoxy)-[1,1′-biphenyl]-3-ylcarboxamido)phenyl)acetic acid] belongs 6 nM.

Molecule `COCCc1cc(COc2ccccc2CC(=O)O)cc(-c2cccc([C@@H](C)N)c2F)c1` [Example 120-V] gave a concentration for half-maximal inhibition (IC50) of 9 nM.

As to `NCc1cc(F)cc(-c2nc(C(=O)Nc3ccccc3CC(=O)O)c(Cl)s2)c1` [Example 30-D, 2-(2-(2-(3-(aminomethyl)-5-fluorophenyl)-5-chlorothiazole-4-carboxamido)phenyl)acetic acid], the IC50 was 31 nM. Next, `CNC(CO)c1cccc(-c2cccc(COc3ccccc3CC(=O)O)c2)c1` (racemic) [Example 171, (±)-2-(2-((3′-(2-Hydroxy-1-(methylamino)ethyl)-[1,1′-biphenyl]-3-yl)methoxy)phenyl)acetic acid]: 2540 nM. To `C[C@@H](N)c1cccc(-c2cc(COc3ccccc3CC(=O)O)cc(NC[C@H]3CCCO3)c2)c1F` [Example 153, 2-(2-((3′-((R)-1-Aminoethyl)-2′-fluoro-5-((((R)-tetrahydrofuran-2-yl)methyl)amino)-[1,1′-biphenyl]-3-yl)methoxy)phenyl)acetic acid] belongs 4 nM; to `CCNc1cc(COc2ccccc2CC(=O)O)cc(-c2cccc([C@@H](C)N)c2F)c1` [Example 151, (R)-2-(2-((3′-(1-aminoethyl)-5-(ethylamino)-2′-fluoro-[1,1′-biphenyl]-3-yl)methoxy)phenyl)acetic acid], 6 nM. Next, `Cn1ccc(COc2cc(C(=O)Nc3ccccc3CC(=O)O)cc(-c3cccc(CN)c3)c2)n1` [Example 66, 2-(2-(3′-(Aminomethyl)-5-((1-methyl-1H-pyrazol-3-yl)methoxy)-[1,1′-biphenyl]-3-ylcarboxamido)phenyl)acetic acid]: 33 nM; `CCN(C[C@@H]1CCCO1)c1cc(COc2ccccc2CC(=O)O)cc(-c2cccc([C@@H](C)N)c2F)c1` [Example 216-J]: 3 nM; `NCc1cc(F)cc(-c2cc(NCC3CCOCC3)cc(C(=O)Nc3ccccc3CC(=O)O)c2)c1` [Example 79-E]: 12 nM.

The record behind these values is US20160145247A1, “Aminomethyl-Biaryl Derivatives Complement Factor D inhibitors and uses thereof” (NOVARTIS AG, priority 2013, published 2016).
